# Assay results reported in a melting point compilation (Tetko et al.; mined from patent text by program, amines drawn as free bases though some values may be those of a salt).
row,Structure (SMILES),melting point
1,OC1(c2ccc(-c3ccccc3)cc2)CN2CCC1CC2 (configuration not stated),165 to 166 °C
2,COC(=O)C1=C(C)NN=C(C(=O)OC2CCCC2)C1c1ccccc1Cl (configuration not stated),152 °C
3,COc1ccccc1C(=O)Nc1ccc(N2CCOCC2)cc1C(C)=O,158 to 160 °C
4,Cc1c(C(F)(F)F)cnn(-c2cc(OCCC3OCCCO3)c(Cl)cc2F)c1=O,112 °C
5,Clc1ccc(-c2[nH]nc(C3=CCN4CCC[C@H]4C3)c2-c2ccncc2)cc1,211 to 212 °C
6,CN1C(=O)[C@H](NC(=O)CC2CCCCC2)N=C(c2ccccc2)c2ccccc21,144 to 146 °C
7,O=C(O)c1ccc(OCCNC(=O)C2Cc3ccccc3N2S(=O)(=O)c2ccc(-c3ccc(F)cc3F)cc2)cc1 (configuration not stated),92 °C
8,Cn1c(=O)c2c(nc(Cl)n2Cc2ccccc2Br)n(C)c1=O,165 to 167 °C
9,COc1ccc(S(=O)(=O)C2(C(=O)NO)CCN(CCCOc3ccccc3)CC2)cc1,101 °C
10,N#CCOc1cccc2onc(N)c12,133 to 136 °C
11,O=C1CCC(C(=O)N2CCC(Cc3ccccc3)CC2)N1 (configuration not stated),160 to 161 °C
12,COC(=O)c1cccc(OC)c1OS(=O)(=O)NC(=O)Nc1nc(C)cc(Cl)n1,140 to 143 °C
13,C=CC(=O)NC(=O)NCCS(=O)C=C (configuration not stated),109 to 110 °C
14,Cc1c(C)c2ccc(OCCCN3CCC(=NO)CC3)cc2oc1=O,198 to 200 °C
15,Cc1nc(-n2ccc(C3CC3)cc2=O)sc1C(=O)NCc1ccccc1,149 to 151 °C
16,COc1ccccc1-n1c(=O)[nH]c2c(C(N)=O)nc(-c3ccc4nc(C)[nH]c4c3)nc21,270 °C
17,COc1cc(F)ccc1-c1ccc(O)c(C(=O)O)c1,205 to 207 °C
18,CC(=O)OCc1cc2ccccc2[nH]1,112 °C
19,CCN(CC)C(=O)c1ccc2c(c1)C(=C(Cl)Cl)OC(C(Cl)(Cl)Cl)O2 (configuration not stated),123 to 124 °C
20,CC(C)=CCN1Cc2cc(Cl)c(Cl)c3[nH]c(=S)n(c23)C[C@@H]1C,173 °C
21,CCCCOc1cc(/C=C(\OCC)C(=O)O)ccc1OCCc1ccc(NC(=O)CC)cc1,164 °C
22,O=Cc1[nH]cc2c1CN=C(c1ccccc1Cl)c1cc(Cl)ccc1-2,270 to 274 °C
23,CC(C)Oc1ccc(OCc2ccccc2)cc1-c1nc2ccc(CO)nc2[nH]1,167 to 168 °C
24,COc1nc(C(=O)NC(C)(C)C)c(C(=O)O)s1,120 to 122 °C
25,CSc1cc2c(cc1C(F)(F)F)N(C(=O)Nc1ccccc1)CC2,163 to 165 °C
26,CCOC(=O)COc1cc2ccsc2c(Cl)c1Cl,92 to 93 °C

row,Structure (SMILES),melting point
1,CC1Cc2cc(O)c(Cl)c(Cl)c2C1=O (configuration not stated),224 to 230 °C
2,O=C(CC(NC(=O)COc1ccccc1)c1ccccc1)Nc1n[nH]c(=S)s1 (configuration not stated),225 to 226 °C
3,COc1ccc2c(c1)OCC(c1ccc(F)cc1)C2c1ccc(OCCN2CCCCC2)cc1 (configuration not stated),93.5 to 94.5 °C
4,O=C(O)Cc1c(C(=O)c2ccccc2)[nH]c2cc(Cl)c(Cl)cc12,206 to 210 °C
5,COC(=O)c1c2n(c3ccccc13)Cc1ccccc1N1CCN(C)CC21 (configuration not stated),157 to 159 °C
6,CN1CCC(N(C)c2ncc3ncnc(Nc4cccc([N+](=O)[O-])c4)c3n2)CC1,199 to 203 °C
7,COC(=O)c1cc(S(C)(=O)=O)c(F)cc1Br,126 °C
8,COC(=O)C(C)(C)CCCCCOc1ccc(N2C(=O)c3ccccc3C2=O)cc1,82 to 83 °C
9,COCc1nc2c(NC(=O)C(C)(C)C)cccn2c1C,104 °C
10,CS(=O)(=O)Nc1ccc(OCCCc2ccc(OCCCCOc3ccccc3)cc2)c(C(=O)O)c1,86 to 88 °C
11,CCCOc1ccc(NC=C(C(=O)OCC)C(=O)OCC)nc1C,116 to 118 °C
12,CC(C)(C)OC(=O)c1ncn2c1C1CCCN1C(=O)c1ncccc1-2 (configuration not stated),230 to 231 °C
13,COc1ccc(C(=O)CNc2ccccc2)cc1,105 to 106 °C
14,COC(=O)C(C)(C)Oc1ccc(-c2ccc(CCNC(=O)c3cc(Cl)ccc3OC)cc2)cc1,< 20 °C
15,Fc1ccc(N2CCC(N3CCc4ccccc43)CC2)cc1,120 to 122 °C
16,Nc1nc2c(ncn2COC(COCc2ccccc2)COCc2ccccc2)c(=O)[nH]1,170 to 177 °C
17,O=C(CCCCCCCc1ccccc1)NNC(=O)c1ccc(O)cc1,150 to 152 °C
18,Nc1c2c(nc3cccc(F)c13)CCCC2,175 °C
19,O=S(=O)(NCc1ccnc2ccccc12)c1ccc(Cc2ccccc2)cc1,106 to 107 °C
20,COC(=O)Cc1c(C)c2ccc(O)cc2oc1=O,194 to 196 °C
21,Nc1ccc(N2CCOC2=O)c(Cl)c1,151 to 153 °C
22,CCc1nc2c(C)cc(C)nc2n1Cc1ccc(C(=C(Cl)C(=O)O)c2ccccc2)cc1,120 to 125 °C
23,CCCn1c(CCOC)nc2c(N)nc3cc(OCCCN)ccc3c21,165 to 166 °C
24,CC(C)(C)c1ccc(Oc2nc(-c3ccc(Cl)cc3)c(CCC(=O)O)o2)cc1,166 to 167 °C
25,COc1cc(OCc2cccnc2)ccc1/C=C/c1cc(/C=C/c2ccc3cc[nH]c3c2)n[nH]1,90 to 95 °C
26,CC(C)(N)c1ccc(-c2nc(Nc3cc(F)cc(F)c3)ncc2C#N)cc1,209 °C

row,Structure (SMILES),melting point
1,c1ccc2c(c1)Cc1cc(C3(Cn4ccnc4)OCCO3)ccc1-2,163 to 166 °C
2,CC(C)c1cccc(C(C)C)c1NC(=O)CN1CC2(CCCCC2)N(c2ccccc2)CC1=O,158 to 160 °C
3,O=C1NCCc2ccc(OCCCN3CCN(c4cccc(Cl)c4Cl)CC3)cc21,162 to 164 °C
4,COc1cc2c(O)c(C(=O)O)cnc2cc1F,275 °C
5,CCCCCCn1c(CN2CCC[C@H]2C(=O)O)nc2cc(-c3ccccc3-c3nn[nH]n3)ccc21,150 to 155 °C
6,CC1CC(=O)NN=C1c1ccc2c(c1)OCC(=O)N2 (configuration not stated),> 300 °C
7,CCOc1cc2ncc(Nc3cccc(F)c3)nc2cc1OCC,193 °C
8,COc1ccc(CCNC(=O)CCCCC(=O)NCCNc2ccccc2)cc1OC,109 to 111 °C
9,COc1ccc2c(c1)C(OC(C)C)=C(C(=O)O)S2=O (configuration not stated),184 to 187 °C
10,CCc1ccc(Nc2c(-c3nnc(NCCO)o3)ccc(F)c2F)c(F)c1,100 to 103 °C
11,CCCCC1CCc2cc(C(=O)C(C)C)cc3c(CCN4CCN(c5cc(C)ccn5)CC4)c(C)n1c23 (configuration not stated),150 °C
12,OCCCc1cccc(OCc2coc(/C=C/c3ccccc3)n2)c1,57 to 58 °C
13,O=C(O)Cc1ccc2c3c(cccc13)C(c1ccccc1)C2 (configuration not stated),200 °C
14,CN(O)C(=O)Cc1ccc2c(c1)C(=O)c1ccccc1CO2,118 to 120 °C
15,O=C(c1nn(-c2ccc(F)cc2F)c2c1C1CCC2C1)N1CCc2ccccc2C1 (configuration not stated),134 to 138 °C
16,Nc1c([N+](=O)[O-])cnn1-c1ncc(Cl)cc1Cl,194 °C
17,COC(=O)c1cc(SCc2ccccc2)c(Cc2ccccc2)c(S(N)(=O)=O)c1,139 to 140 °C
18,C[C@@H](NCCOCc1ccccc1)[C@](O)(Cn1cncn1)c1ccc(Cl)cc1Cl (relative stereo),105 to 107 °C
19,C#CCOC(=O)c1ccc2ccccc2c1,68 to 70 °C
20,O=C(O)c1[nH]c(-c2ccoc2)cc1-c1ccc(O)cc1,154 to 156 °C
21,O=C1c2ccc([N+](=O)[O-])cc2S(=O)(=O)N1CSc1ccccc1,161 to 163 °C
22,CCc1nc(N)nc(N)c1N1CCNCC1,204 to 207 °C
23,CNC1CCN(c2nc3c(cc2F)c(=O)c(C(=O)O)cn3CCF)C1 (configuration not stated),243 to 245 °C
24,CCCC(=O)Nc1n[nH]c2cc(-c3ccc4c(c3)OCO4)ccc12,240 °C
25,Cc1nc(N2CCN(C(=O)c3ccco3)CC2)nnc1-c1ccccc1,142 °C
26,CC1=CC2Cc3[nH]c(=O)ccc3C3(C1)NCCCC23 (configuration not stated),270 to 271 °C

row,Structure (SMILES),melting point
1,CC(C)(C)OC(=O)N1CCC(N2Cc3ccccc3NC2=NC#N)CC1,249 to 250 °C
2,CCCCCCCCCCCCCCCCCC(CCC(=O)O)[N+](=O)[O-] (configuration not stated),55 to 56 °C
3,O=c1[nH]ncn1-c1ccc(I)cc1,258 °C
4,CCC(O)(CC)c1cc(Cl)ccc1O,76 °C
5,CCc1cc(OCc2ccc(-c3ccccc3-c3nnn(C(c4ccccc4)(c4ccccc4)c4ccccc4)n3)cc2)c2c(n1)COCC2,168 to 170 °C
6,CCc1ccc2[nH]c(SCC(F)(F)F)nc2c1,127 to 129 °C
7,COc1ccc(N(C(=O)CNC(=O)Nc2cccc(C)c2)c2ccccc2)cc1,182 °C
8,O=[N+]([O-])c1ccc(Sc2ncc[nH]2)cc1,207 to 209 °C
9,N#Cc1ccc(C(=O)N2CCNC2=Nc2c(Cl)cccc2Cl)cc1,208 to 210 °C
10,Cc1nn(-c2ccccn2)cc1COc1ccc(COc2ncccc2C#N)cc1,108 to 109 °C
11,CC#CCOc1ccc(SC(CCCCCC)C(=O)O)cc1 (configuration not stated),125 °C
12,N#Cc1ccc(OCCC2CCN(c3cc(Cl)nnc3Cl)CC2)cc1,138 to 139 °C
13,CC(C)C1(Br)Cc2cc(OCC(=O)O)c(Cl)c(Cl)c2C1=O (configuration not stated),150 to 153 °C
14,COC(=O)/C=C/C=C/c1ccc(OCc2nc(-c3ccccc3)oc2C)c(OC)c1,166 to 167 °C
15,COc1cc2cc3c(=O)[nH]cnc3cc2cc1OCCN1CCOCC1,230 to 232 °C
16,Cc1c(/C=C/C(=O)c2c[nH]c3ccccc23)ncn1C(c1ccccc1)(c1ccccc1)c1ccccc1,240 to 242 °C
17,CCOC(=O)NC(=N)NCCSCc1[nH]cnc1C,196 to 197 °C
18,CC(C)(C)C(=O)COc1ccc(Cl)cc1,58 °C
19,Cc1cc2c(c(C)c1O)C(C)(C)C(C)C2C (configuration not stated),55 to 57 °C
20,O=C(NCC1C2(CCCC1(c1ccccc1)c1ccccc1)OCCO2)c1ccccc1 (racemic),162 °C
21,NC1CC2=CNC=C3C=COCC1=C32 (configuration not stated),202 to 203 °C
22,CCCCC1=CC(O)(C(Br)Br)N(Cc2ccccc2)C1=O (configuration not stated),92 to 93 °C
23,O=S(=O)(c1ccc(Cl)cc1)N1CCCC1c1ccc(F)cc1 (racemic),118 °C
24,Nc1ccc(OCCCCCC(=O)OCCOCCOC(=O)CCCCCOc2ccc(N)cc2)cc1,56 to 58 °C
